Data reported in US20240148780A1, “COMPOSITION AND USE OF AN OPHTHALMIC SOLUTION BASED ON HYALURONIC ACID AND ARABINOGALACTAN” (MD ITALY SRL, priority 2019, published 2024).

Legend:
[1] = tested on: isolated hepatocytes and microsomal fractions from rat liver; conditions: compared with an equivalent amount of directly-added free alpha-tocopherol; cited from earlier work
[2] = target: T1, xanthine oxidase (Homo sapiens, UniProt P47989); assay: Xanthine oxidase (XOD) reaction inhibition: formation of uric acid; format: biochemical
Protocol: The effect of arabinogalactan, hyaluronic acid and the association thereof was investigated by monitoring the formation of uric acid over time (0, 1, 5, 10, 15, 30 min). Uric acid concentration was determined at 291 nm using a DR6000 UV spectrophotometer (Hach, Lange). The absorbance value is related to the concentration by means of the Lambert-Beer law:
where A is the absorbance of uric acid at 291 nm, ε is the molar absorption coefficient, b is the optical path (thickness of the cuvette in which the solution is contained) and C is the uric acid concentration.
The blank/control consists of: 50 μM xanthine, 10 mg L^−1 of xanthine oxidase (XO) (0.00016 μUI of enzyme) in borate buffer solution (see table 3) 7.2≤pH≤7.8). The effect of the components of the eye drops was investigated by adding the individual components to the blank solution: respectively • (i) 0.4% (w/w) of arabinogalactan (AG) • (ii) 0.15% (w/w) of hyaluronic acid (HA) • (iii) association of 0.4% (w/w) of AG+0.15% (w/w) of HA (mix AG+HA). • (iii) Eye drops corresponding to the formulation of Tab.3.
All the tests were conducted at least in triplicate.
The uric acid formation reductions were calculated as: […]
where C30-(i) is the final concentration (30 min) of uric acid in the i-th test and C30-control is the uric acid concentration at 30 min in the blank (control).
Furthermore, the inhibition evaluation reported above was also carried out in borate buffer for arabinogalactan, for hyaluronic acid and for the association thereof, and finally for the eye drops formulation of the present invention, also comprising panthenol, vitamin E-TGPS and trehalose.

[3] = target: T1, xanthine oxidase; assay: Superoxide anion production by xanthine oxidase, detected by ferrocytochrome C reduction; format: biochemical; conditions: xanthine oxidase reaction
Source text: Any inhibition is particularly important because the superoxide anion production is at the origin, at least in part, of the inflammatory phenomena of the ocular surface. The superoxide anion produced by xanthine oxidase in the oxidation reaction of xanthine was detected by the reduction of […] to […] by the same superoxide anion (O2^−·) (Fridovich). The reaction is reported here for clarity:
Fe^3+Cit.C+Superoxide Anion-----→Fe^2+Cit.C
The effect of arabinogalactan, hyaluronic acid, and the association thereof on superoxide anion production over time (0, 1, 5, 10, 15, 30 min) was investigated. The production of superoxide anion was determined by the reduction of ferrocytochrome C (3+) to ferrocytochrome C (2+), monitoring absorption at 551 nm using a DR6000 UV spectrophotometer (Hach, Lange). The tests for the determination of superoxide anion production were carried out still using the xanthine oxidase reaction used previously.
Produced by the superoxide anion, the ferrocytochrome C was calculated considering a molar absorption equal to 2.1×10^4 M^−1·cm^−1 (Ref. 16-17). The superoxide inhibition evaluation reported above was performed for arabinogalactan, hyaluronic acid, and the association thereof. Furthermore, the eye drops formulation of the present invention was also evaluated, also comprising panthenol, vitamin E-TGPS and trehalose.

[4] = Rheology, plate viscometer in oscillation mode (G″, G′); format: physicochemical; conditions: HA 0.15% w/w, AG 0.4% w/w
Protocol: In addition to the evaluation of the effect of arabinogalactan, hyaluronic acid and the association thereof on xanthine oxidase activity and in order to characterize the possible interaction thereof, to justify the inhibitory effect thereof, rheology measurements were carried out with the hypothesis that the two macrostructures, arabinogalactan on the one hand and hyaluronic acid on the other, could modify the rheological trend of the formulation of the present invention.
With reference to FIG. 3, the characterization of the following solutions was carried out using an AM Instruments Plate Viscometer, in Oscillation Mode. The following solutions were measured: • Sample 1: Hyaluronic acid solution at 0.15% w/w • Sample 2: Arabinogalactan solution 0.4% +Hyaluronic acid 0.15% w/v • Sample 3: Arabinogalactan solution 0.4% w/w.
1: Hyaluronic acid 0.15% w/w • Solution no. 2: Arabinogalactan 0.4%+hyaluronic acid 0.15% w/w • Solution no. 3: Arabinogalactan 0.4% w/w • Interpretation of the Results: […]

[5] = Viscosity as a function of shear rate, plate viscometer; format: physicochemical
Protocol: Given the results obtained, the characterization was further extended to determine the viscosity as a function of the shear rate, always using a Plate Viscometer, in particular the following solutions were measured. • Sample 1: Hyaluronic acid • Sample 2: Hyaluronic acid+Arabinogalactan • Sample 3: Eye drops A • Sample 4: Arabinogalactan
The description of the graph can be further exemplified by the following table which reports the viscosity values (mPa·s$) at 10[1/s] at a fixed point corresponding to A.

T1 sequence (P47989 whole entry, species assumed): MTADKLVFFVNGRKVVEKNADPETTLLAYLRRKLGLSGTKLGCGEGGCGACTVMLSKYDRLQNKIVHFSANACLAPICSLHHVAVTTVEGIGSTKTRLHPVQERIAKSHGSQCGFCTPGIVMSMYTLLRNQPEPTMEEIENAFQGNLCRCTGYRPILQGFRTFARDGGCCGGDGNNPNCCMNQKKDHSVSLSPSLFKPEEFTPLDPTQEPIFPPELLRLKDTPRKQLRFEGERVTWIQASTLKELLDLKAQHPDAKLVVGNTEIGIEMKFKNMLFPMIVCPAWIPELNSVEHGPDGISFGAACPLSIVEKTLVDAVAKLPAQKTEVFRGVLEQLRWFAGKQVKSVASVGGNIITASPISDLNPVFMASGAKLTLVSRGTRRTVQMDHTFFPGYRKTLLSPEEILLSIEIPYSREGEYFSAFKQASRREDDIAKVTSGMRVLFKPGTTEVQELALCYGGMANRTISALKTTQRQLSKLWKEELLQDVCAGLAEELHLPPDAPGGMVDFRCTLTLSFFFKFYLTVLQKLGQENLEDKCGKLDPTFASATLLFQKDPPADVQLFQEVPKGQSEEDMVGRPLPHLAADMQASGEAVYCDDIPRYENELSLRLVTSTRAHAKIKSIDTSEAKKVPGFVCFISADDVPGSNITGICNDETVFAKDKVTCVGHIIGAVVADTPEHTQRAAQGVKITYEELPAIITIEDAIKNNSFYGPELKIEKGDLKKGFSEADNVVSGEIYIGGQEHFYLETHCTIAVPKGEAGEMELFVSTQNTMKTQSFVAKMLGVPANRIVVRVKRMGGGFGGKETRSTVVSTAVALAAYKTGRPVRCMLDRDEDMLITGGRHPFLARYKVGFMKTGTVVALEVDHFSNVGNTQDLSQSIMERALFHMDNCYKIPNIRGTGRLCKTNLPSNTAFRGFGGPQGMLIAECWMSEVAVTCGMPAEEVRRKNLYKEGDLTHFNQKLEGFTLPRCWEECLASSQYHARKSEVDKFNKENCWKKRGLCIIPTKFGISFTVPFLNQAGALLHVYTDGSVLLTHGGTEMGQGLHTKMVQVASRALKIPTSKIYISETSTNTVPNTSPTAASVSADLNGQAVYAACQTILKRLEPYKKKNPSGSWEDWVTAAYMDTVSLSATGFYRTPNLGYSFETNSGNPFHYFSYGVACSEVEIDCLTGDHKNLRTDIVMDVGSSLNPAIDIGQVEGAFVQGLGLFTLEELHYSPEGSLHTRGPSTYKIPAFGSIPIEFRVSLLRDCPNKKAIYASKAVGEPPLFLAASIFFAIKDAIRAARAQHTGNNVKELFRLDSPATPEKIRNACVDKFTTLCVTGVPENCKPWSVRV

| Compound | Antioxidant protection [1] | Uric acid μM produced in 30 minutes ([2]; 50 μM xanthine, 10 mg L−1 xanthine oxidase, borate buffer, AG 0.4% w/w, HA 0.15% w/w, 30 min) [µM] | Inhibition % of uric acid production ([2]; 50 μM xanthine, 10 mg L−1 xanthine oxidase, borate buffer, AG 0.4% w/w, HA 0.15% w/w, 30 min vs blank) [%] | Uric acid μM produced per minute ([2]; per minute, same reaction, linear kinetics assumed) [µM] | Fe+2 Cit.C μM produced per minute ([3]; per minute) [µM] | Fe+2 Cit.C μM produced in 30 minutes ([3]; 551 nm, 30 min) [µM] | Inhibition % of Fe+2 Cit.C production (superoxide anion) ([3]; 551 nm, 30 min vs control) [%] | Trend of G″ (Loss Modulus Viscosity) [4] | Viscosity trend as a function of shear rate ([5]; FIG. 4) | Viscosity ([5]; at 10 [1/s], fixed point) [mPa·s] |
| --- | --- | --- | --- | --- | --- | --- | --- | --- | --- | --- |
| Cc1c(C)c2c(c(C)c1OC(=O)CCC(=O)O)CC[C@@](C)(CCC[C@H](C)CCC[C@H](C)CCCC(C)C)O2 [TS, alpha-tocopherol succinate, reference compound] | more effective antioxidant protection than an equivalent amount of directly-added free alpha-tocopherol | – | – | – | – | – | – | – | – | – |
| Hyaluronic acid | – | 15.3 | 0 | 0.51 | 0.42 | 12.6 | 17.2 | always with a value higher than the other measured solutions | linear trend (Newtonian) higher viscosity | 1.50 |
| alpha-tocopherol polyethylene glycol 1000 succinate [TPGS] | more effective antioxidant protection than an equivalent amount of directly-added free alpha-tocopherol | – | – | – | – | – | – | – | – | – |
